Experimental data published in US11147799B2, “Topical pharmaceutical composition containing phenytoin and a (co-) analgesic for the treatment of chronic pain” (Topical Innovations B.V., priority 2016, dated 2021).
Entries after “also recorded” stand apart in the source; their conditions may differ.

Columns and labels:
neuropathic pain [1] = assay: Earlier oral medication of the case patients (case histories); settings: case history of the individual patient
[2] = after oral administration; corresponding tissue; cited from earlier work
neuropathic pain [3] = settings: 21% for placebo; cited from earlier work

Row | SMILES | pain relieving effect of earlier oral medication (words) (neuropathic pain [1]) | side effects of earlier oral medication (neuropathic pain [1]) | further results
1 | CN(C)CCC=C1c2ccccc2CCc2ccccc21 [Amitriptyline] | did not have any pain relieving effect |  | 
2 | O=C(O)Cc1ccccc1Nc1c(Cl)cccc1Cl [diclofenac] |  |  | Cmax of diclofenac in muscles [2]: 1160 ng/mL
3 | NCC1(CC(=O)O)CCCCC1 [gabapentin] |  | too much side effects | patients who achieved 50% or more pain relief (neuropathic pain [3]): about 35%
4 | CC(C)C[C@H](CN)CC(=O)O [pregabalin] | without sufficient pain reduction; also recorded: had a pain reducing effect | anxiety and depression; also recorded: too much side effects | pain relieving effect of earlier oral medication (words) (neuropathic pain [1]; listed as Pregabalin): did not have any effect
5 | COc1ccc(C(CN(C)C)C2(O)CCCCC2)cc1 (centres unmarked) [venlafaxine] |  | induced nausea | 
